Results from PubChem BioAssay (NCI).
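Dose response: 5 concentrations. Exposure: 48 h. Format: 96-well plates. Endpoint: linear interpolation; highest concentration if not reached. Definition used: TGI = concentration required for complete inhibition of growth.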

Legend:
Assay in all cases: NCI-60 cell line screen, 48 h
M14 melanoma = system: M14 melanoma
SW-620 colon = system: SW-620 colon
NCI/ADR-RES ovarian = system: NCI/ADR-RES ovarian
COLO 205 colon = system: COLO 205 colon
LOX IMVI melanoma = system: LOX IMVI melanoma
786-0 renal = system: 786-0 renal
BT-549 breast = system: BT-549 breast
EKVX NSCLC = system: EKVX NSCLC
MCF7 breast = system: MCF7 breast
IGROV1 ovarian = system: IGROV1 ovarian
KM12 colon = system: KM12 colon
NCI-H522 lung = system: NCI-H522 lung
NCI-H226 lung = system: NCI-H226 lung
NCI-H460 lung = system: NCI-H460 lung
HOP-62 NSCLC = system: HOP-62 NSCLC
T-47D breast = system: T-47D breast
DU-145 prostate = system: DU-145 prostate

| Compound | TGI (M14 melanoma) [µM] | TGI (SW-620 colon) [µM] | TGI (NCI/ADR-RES ovarian) [µM] | TGI (COLO 205 colon) [µM] | TGI (LOX IMVI melanoma) [µM] | TGI (786-0 renal) [µM] | TGI (BT-549 breast) [µM] | TGI (EKVX NSCLC) [µM] | TGI (MCF7 breast) [µM] | TGI (IGROV1 ovarian) [µM] | TGI (KM12 colon) [µM] | TGI (NCI-H522 lung) [µM] | TGI (NCI-H226 lung) [µM] | TGI (NCI-H460 lung) [µM] | TGI (HOP-62 NSCLC) [µM] | TGI (T-47D breast) [µM] | TGI (DU-145 prostate) [µM] |
| --- | --- | --- | --- | --- | --- | --- | --- | --- | --- | --- | --- | --- | --- | --- | --- | --- | --- |
| Cc1ccc(S(=O)(=O)Nn2c(S)c(C#N)c(-c3ccc([N+](=O)[O-])cc3)c(C#N)c2=O)cc1 | > 100 | 35.1 | > 100 | 98.3 | 28.5 | 52.2 | 29.6 | > 100 | > 100 | 51 | > 100 | 30.2 | > 100 | > 100 | > 100 | – | – |
| CCC(=O)N(O)C(C)(C)C | > 100 | > 100 | – | > 100 | > 100 | > 100 | – | – | – | > 100 | > 100 | > 100 | > 100 | > 100 | > 100 | – | – |
| O=C1C(=Nc2ccccc2)Oc2cc(O)ccc21 | > 100 | > 100 | > 100 | > 100 | > 100 | > 100 | – | > 100 | > 100 | > 100 | > 100 | > 100 | > 100 | > 100 | > 100 | > 100 | > 100 |
| c1ccc(C2OCCO2)c(OCCOc2cc(OCCOc3ccccc3C3OCCO3)c(OCCOc3ccccc3C3OCCO3)cc2OCCOc2ccccc2C2OCCO2)c1 | > 100 | > 100 | – | > 100 | > 100 | 17.3 | – | – | – | 28.6 | > 100 | – | 47.3 | > 100 | 28.6 | – | – |
| C[n+]1cccc2ccc(OC(=O)c3ccccc3)cc21 | > 100 | > 100 | > 100 | > 100 | > 100 | > 100 | – | > 100 | > 100 | > 100 | > 100 | > 100 | > 100 | – | > 100 | > 100 | > 100 |
| O=c1c2cn[nH]c2nc2scc(-c3ccc(Cl)cc3)n12 | > 100 | > 100 | > 100 | > 100 | > 100 | > 100 | – | > 100 | > 100 | > 100 | > 100 | > 100 | > 100 | > 100 | > 100 | > 100 | – |
| CC(C)C1COC(c2cccc(C3=N[C@@H](C(C)C)CO3)n2)=N1 (stereo not given in full) | > 100 | > 100 | – | > 100 | > 100 | > 100 | – | > 100 | – | > 100 | > 100 | > 100 | > 100 | > 100 | > 100 | – | – |
| CC(=O)N(CN1C(=O)CCC1C(=O)O)c1cccc(O)c1 (stereo not given) | > 100 | > 100 | > 100 | > 100 | > 100 | > 100 | – | > 100 | > 100 | > 100 | > 100 | > 100 | > 100 | > 100 | > 100 | > 100 | > 100 |
| Cc1ccc2c(C)c3ccc4ccccc4c3c[n+]2c1 | 33.9 | > 82.1 | – | 27.2 | 99.8 | 80.3 | – | > 100 | – | > 100 | 14.6 | 28.3 | 25.4 | 35.2 | 51.2 | – | – |
| Cc1ccc(S(=O)(=O)n2c3c(c4ccccc42)CCN2CCC(Br)C[C@@H]32)cc1 (stereo not given in full) | 25.9 | 26.1 | 32.5 | 30.2 | 27.6 | 30.2 | – | 38.1 | 22.8 | 22.3 | 21.1 | 18.6 | 27.9 | 30.1 | 28.5 | 21.8 | 29.1 |
| C=C=C(Sc1ccccc1)C(C)(C)OC(C)=O | 32.4 | 33.7 | – | 32.5 | 30.9 | 30.1 | – | – | – | 33.3 | 31.4 | 29.6 | 45.4 | 46.8 | – | – | 90.2 |
| C/C(CC1SCCCS1)=C(/C)CC1SCCCS1 | > 100 | > 100 | > 100 | > 100 | > 100 | > 100 | – | > 100 | > 100 | > 100 | > 100 | – | > 100 | > 100 | > 100 | > 100 | > 100 |
| O=C1[C@@H]2C[C@@H](O)CN2C(=O)c2ccccc2N1CCCO | > 100 | > 100 | > 100 | – | > 100 | > 100 | – | > 100 | > 100 | > 100 | > 100 | > 100 | > 100 | > 100 | > 100 | > 100 | > 100 |
| Cn1cnc(N2CCCC2)c(C#N)c1=O | > 100 | > 100 | > 100 | > 100 | > 100 | > 100 | – | > 100 | > 100 | > 100 | > 100 | > 100 | > 100 | > 100 | > 100 | > 100 | > 100 |
